The values below come from patent publication US20050008640A1, “Method of treating transplant rejection” (priority 2003, published 2005).

The test system of one test is C57BL/6 mice. Kind of test: Delayed type hypersensitivity (DTH), mBSA footpad challenge. It is filed as in vivo. As to the method:
A modification of a method described by Magram, J., Turek, C. W., Killeen, N; Immunity, 4: 471, 1996 and Magram, J., Sfarra, J., Connaughton, S., et al; Ann. NY Acad. Sci., 795: 60-70, 1996 was used. On day 0 C57BL/6 mice were immunized intradermal (i.d.) with 400 μg methylated bovine serum albumin (mBSA) (Sigma Chemical Co., St. Louis, Mo.) in a 1:1 emulsion with complete Freund's adjuvant (Difco Labs, Detroit, Mich.). […] On day 7 post immunization mice were challenged in one hind footpad with 100 μg of mBSA in 20 μl of PBS and in the opposite footpad with PBS alone. Footpad swelling was measured 24 hours after challenge using a vernier caliper.

For test [1], the system named is BALB/c islet grafts in diabetic C57BL/6 recipients. Nature of the test: Islet transplantation. Format: in vivo, C57BL/6 mice. The note with it: 12 mg/kg oral daily. As to the method:
Chemical diabetes was induced in C57BL/6 mice using a single intraperitoneal dose of streptozocin (150 mg/kg) as previously described in Markees, T. G., Serreze, D. V., Phillips, N. E., et al; Diabetes, 48(5): 967-974, 1999. Mice with persistent hyperglycemia of >300 mg/dl were selected for experimentation as allograft recipients. Blood for plasma glucose was monitored thrice weekly (Glucose Analyzer2; Beckman Instruments, Fullerton, Calif.). Islets of Langerhans from BALB/c donors were isolated by collagenase digestion followed by density-gradient separation, as described previously Markees, T. G., Serreze, D. V., Phillips, N. E., et al; Diabetes, 48(5): 967-974, 1999. Approximately 20 islets/g body weight were transplanted into the renal subcapsular space C57BL/6 recipients. Oral treatments were provided daily beginning one day prior to islet transplant through day 28. Rejection was defined as the first of two consecutive days on which the plasma glucose was greater than or equal to 250 mg/dl. To verify the functionality of islet grafts, the graft bearing kidney was removed and placed in 10% formalin for histological analysis. Recurrence of hyperglycemia after graft removal was interpreted as evidence that the graft was the source of insulin in treated mice.

Another test deals with anti-CD3 induced IL-2. Nature of the test: Anti-CD3 induced IL-2 production. Format: in vivo, BALB/c mice. Conditions: 12.5 mg/kg p.o. As to the method: Six to 8 week old BALB/c mice were dosed p.o. with EXAMPLE 3 30 minutes prior to i.v. injection of 75 ng hamster anti-mouse CD3 antibody, 145-2C11 (PharMingen, San Diego, Calif.). Two hours after anti-CD3 injection mice were bled via cardiac puncture, serum was collected and assayed for IL-2 by ELISA (Endogen, Woburn, Mass.).

A further test concerns IgG1 alloantibody. Kind of test: Alloantibody measurement, IgG1. It is filed as in vivo, C57BL/6 mice. The note with it: serum 21 days after cardiac allograft; dose not stated. As to the method: (§1) All sera were heat inactivated at 56° C. for 30 minutes and stored at −20° C. prior to analysis. BALB/c T cells were purified from spleen using MACS CD90 (Thy1.2) beads (Miltenyi Biotech, Auburn, Calif.). Briefly, 10^7 cells were resuspended in buffer containing 10 mg/ml of human IgG (Sigma, St. Louis, Mo.). […] The bead/cell mixture was then incubated for 15 minutes at 6-12° C., washed, and resuspended in 500 μl PharMingenStain Buffer (PharMingen , San Diego, Calif.) per 10^8 cells and run through an LS+ selection column. The isolated T cell suspension was adjusted to a concentration of 1×10^6 cells/ml. For flow cytometric analysis BALB/c T cells were incubated with recipient sera (1:50 for IgG2a analysis, 1:40 for IgG1 analysis). Following a 30 minute incubation at 4° C., the cells were washed and resuspended in either goat anti-mouse IgG1-phycoerythrin (PE) or anti-mouse IgG2a-PE antibody (Caltag, Burlingame, Calif.). Cells were analyzed using a Becton Dickinson FACScan (Mountain View, Calif.). Data are presented as mean and SEM of fluorescence intensity corrected for control (naive serum) fluorescence. Statistical analysis was performed using a two-tailed Student's t-test.

The subject of test [2] is BALB/c skin allograft in C57BL/6 recipient mice. Kind of test: Skin transplantation. The note with it: q.d. day -1 to day 9. Format: in vivo, C57BL/6 mice. The source says: Skin transplantation was done using a modification of a previously described method Chang, A. E. & Sugarbaker, P. H; Transplantation, 29: 381, 1980 and Sugarbaker, P. H. & Chang, A; J. Immunol. Methods, 31: 167, 1979. Tail skin was collected from BALB/c donors, scraped free of fat and fascia and maintained in PBS on ice until transplanted. Partial thickness wounds were created on the backs of C57BL/6 recipient mice and the graft was cut to exactly fit the wound bed. Grafts were adhered to the wound bed with a small amount of wound glue (Henry Schein, Melville, N.Y.), covered with petroleum jelly embedded gauze (Sherwood Medical, St. Louis, Mo.) and bandaged for 5 days. On day 6, bandages were removed and grafts were scored visually for necrosis from day 6 to day 10.

Test [3] relates to BALB/c cardiac allograft in C57BL/6 recipients. Kind of test: Neonatal cardiac transplantation. The note with it: for cardiac allograft survival on day 13 post transplantation: q.d. from day -1, visual observation and electrocardiogram. It is filed as in vivo, C57BL/6 mice. The source says: Neonatal cardiac transplantation was done using a modification of methods described by Judd, K. P. & Trentin, J. J; Transplantation, 11(3): 298-302, 1971 and Fey, T. A., Krause, R. A., Hsieh, G. C., et al; J. Pharmacol. Tox. Methods, 39: 9-17, 1998 which are incorporated herein in their entirety.
Hearts from one to two day old C57BL/6 (isograft) and BALB/c (allograft) pups were removed aseptically and stored in cold PBS until transplant. Adult C57BL/6 mice were used as transplant recipients. Each recipient mouse was transplanted with an isograft heart in the left ear and an allograft heart in the right ear. Mice were anesthetized with avertin (0.25 cc/mouse, i.p.) (2.0 G 2,2,2-Tribromoethanol) (Aldrich, Milwaukee, Wis.) plus 2.0 ml 2-methyl-2-butanol (tert-amyl alcohol) (Aldrich, Milwaukee, Wis.) and protective ointment was applied to eyes after anesthesia. An incision was made in each ear pinnae using a scalpel blade and straight fine forceps were used to create a subcutaneous pocket in the ear. The donor heart was placed into the pocket using a second pair of forceps. On days 5-16, mice were anesthetized with isofluorane (Henry Schein, Melville, N.Y.) /oxygen and the heartbeats were visually assessed using a dissecting microscope. On the final day electrical activity of the cardiac tissue was monitored by electrocardiogram. The ears were then removed and the transplanted tissue were evaluated histologically for evidence of inflammation and necrosis (rejection).

The test system of another test is IgG2a alloantibody. Nature of the test: Alloantibody measurement, IgG2a. Format: in vivo, C57BL/6 mice. The note with it: serum 21 days after cardiac allograft; dose not stated. As to the method: as §1

For the compound `COc1cc(-c2nn(C3CCC(N4CCN(C)CC4)CC3)c3ncnc(N)c23)ccc1NC(=O)c1cc2ccccc2n1C` (centres unmarked) [Example 3], in the test on C57BL/6 mice (treatment given only on days 7 and 8 (around the antigen challenge)), the “inhibition of DTH” value is on record as 65%. Further, the “inhibition of footpad swelling 24 hours post challenge” value in the test on C57BL/6 mice (treatment p.o., q.d. from day -1 to day 8) was 77%. Also, in test [1], the “histological evaluation of islet grafts” value is “minimal intra-graft inflammation”. In addition, the “glycemic state of islet graft recipients” value in test [1] (day -1 through day 28) is “normoglycemic”. For the same compound, the “maintenance of BALB/c islet cell grafts” value in test [1] (day -1 through day 28) is given as 28 days. Besides, the “inhibition of anti-CD3 induced IL-2” value in the test on anti-CD3 induced IL-2 was “complete inhibition”. For the same compound, the “IgG1 alloantibody isotype production” value in the test on IgG1 alloantibody was “completely inhibited”. Moreover, the “survival of skin allografts” value in test [2] (6 mg/kg p.o.) is recorded as 42%; in test [2] (12 mg/kg p.o.), 90%. In addition, the “cardiac allograft survival on day 13 post transplantation” value was 60% in test [3] (6 mg/kg p.o.) and 100% in test [3] (12 mg/kg p.o.). For the same compound, the “Percent Survival Day 16 Post Transplant (cardiac allograft, electrocardiogram)” value in test [3] (Example 3 3 mg/kg p.o., q.d.) was 10%. Also, the “histological evaluation of transplanted allograft hearts” value in test [3] (compared to vehicle treated hearts) is “decrease in peri- and intra-graft inflammation and necrosis”. Besides, the “IgG2a alloantibody isotype production” value in the test on IgG2a alloantibody is on record as “completely inhibited”.
